Several values for one entry are separate records, joined by “and”; a condition that tells them apart may be missing. Identical values can stand only once. Toxic doses and inconclusive results are not listed. How the source made its calls: active means survival T/C of 150% or more; inactive means T/C below 125% in these data.
Test system: CD2F1 mice, L1210 leukemia ip, survival T/C
Assay: NCI In Vivo Anticancer Drug Screen. Data for tumor model L1210 Leukemia (intraperitoneal) in CD2F1 (CDF1) mice
Details: higher = longer survival
Procedure, shortened: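 Implant tumor; dose compound or vehicle; measure endpoint in both groups; report treated divided by control.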

[1] = endpoint: mean survival time, dose: 100.0 mg/kg/injection, schedule: Q04DX003 (ip), vehicle: saline with Tween-80
[2] = endpoint: mean survival time, dose: 200.0 mg/kg/injection, schedule: Q04DX003 (ip), vehicle: saline with Tween-80
[3] = endpoint: mean survival time, dose: 400.0 mg/kg/injection, schedule: Q04DX003 (ip), vehicle: saline with Tween-80
[4] = endpoint: mean survival time, dose: 100.0 mg/kg/injection, schedule: Q04DX002 (ip), vehicle: saline with Tween-80
[5] = endpoint: mean survival time, dose: 200.0 mg/kg/injection, schedule: Q04DX002 (ip), vehicle: saline with Tween-80
[6] = endpoint: mean survival time, dose: 400.0 mg/kg/injection, schedule: Q04DX002 (ip), vehicle: saline with Tween-80
[7] = endpoint: mean survival time, dose: 25.0 mg/kg/injection, schedule: Q01DX009 (ip), vehicle: saline
[8] = endpoint: mean survival time, dose: 50.0 mg/kg/injection, schedule: Q01DX009 (ip), vehicle: saline
[9] = endpoint: mean survival time, dose: 50.0 mg/kg/injection, schedule: Q01DX009 (ip), vehicle: saline with Tween-80
[10] = endpoint: mean survival time, dose: 100.0 mg/kg/injection, schedule: Q01DX009 (ip), vehicle: saline with Tween-80
[11] = endpoint: mean survival time, dose: 200.0 mg/kg/injection, schedule: Q01DX009 (ip), vehicle: saline with Tween-80
[12] = endpoint: mean survival time, dose: 400.0 mg/kg/injection, schedule: Q01DX009 (ip), vehicle: saline with Tween-80

Measured: T/C

O=C(O)C(O)C(=O)O.[NH-]C1CCCCC1[NH-].[Pt+2]
inactive: endpoint: mean survival time, dose: 1.18 mg/kg/injection, schedule: Q04DX003 (ip), vehicle: saline with Tween-80 109 % of control | endpoint: mean survival time, dose: 2.35 mg/kg/injection, schedule: Q04DX003 (ip), vehicle: saline with Tween-80 120 % of control | endpoint: mean survival time, dose: 4.7 mg/kg/injection, schedule: Q04DX003 (ip), vehicle: saline with Tween-80 124 % of control

COc1cccc(C2NC(=O)c3c(n[nH]c3N)S2)c1O (stereo not given)
inactive: endpoint: median survival time, dose: 12.5 mg/kg/injection, schedule: Q01DX009 (ip), vehicle: saline with Tween-80 101 % of control | endpoint: median survival time, dose: 25.0 mg/kg/injection, schedule: Q01DX009 (ip), vehicle: saline with Tween-80 101 % of control | endpoint: median survival time, dose: 50.0 mg/kg/injection, schedule: Q01DX009 (ip), vehicle: saline with Tween-80 102 % of control | endpoint: median survival time, dose: 100.0 mg/kg/injection, schedule: Q01DX009 (ip), vehicle: saline with Tween-80 98 % of control | endpoint: median survival time, dose: 200.0 mg/kg/injection, schedule: Q01DX009 (ip), vehicle: saline with Tween-80 97 % of control | endpoint: median survival time, dose: 400.0 mg/kg/injection, schedule: Q01DX009 (ip), vehicle: saline with Tween-80 93 % of control

CC12C(=O)C(C(c3ccccc3)=C1c1ccccc1)C(C(=O)O)C2C(=O)O (stereo not given)
inactive: [1] 89 % of control | [2] 93 % of control | [3] 101 % of control

COc1ccc(Cn2cnc3c(=S)nc[nH]c32)cc1
inactive: endpoint: mean survival time, dose: 100.0 mg/kg/injection, schedule: Q01DX001 (ip), vehicle: Klucel (hydroxypropylcellulose) (HPC) 91 % of control | endpoint: mean survival time, dose: 200.0 mg/kg/injection, schedule: Q01DX001 (ip), vehicle: Klucel (hydroxypropylcellulose) (HPC) 100 % of control | endpoint: mean survival time, dose: 400.0 mg/kg/injection, schedule: Q01DX001 (ip), vehicle: Klucel (hydroxypropylcellulose) (HPC) 94 % of control

Cc1ccc2cccc(CC(=O)O)c2c1
inactive: [4] 102 % of control | [5] 98 % of control | [6] 91 % of control

CCCCCCC(C)Oc1ccccc1Cl (stereo not given)
inactive: [4] 107 % of control | [5] 86 % of control | [6] 96 % of control

O=C(C(=C(c1ccccc1)c1ccccc1)N1CCCCC1)c1ccccc1
inactive: endpoint: mean survival time, dose: 100.0 mg/kg/injection, schedule: Q04DX003 (ip), vehicle: Klucel (hydroxypropylcellulose) (HPC) 94 % of control | endpoint: mean survival time, dose: 200.0 mg/kg/injection, schedule: Q04DX003 (ip), vehicle: Klucel (hydroxypropylcellulose) (HPC) 96 % of control | endpoint: mean survival time, dose: 400.0 mg/kg/injection, schedule: Q04DX003 (ip), vehicle: Klucel (hydroxypropylcellulose) (HPC) 94 % of control

O=C(CSC1=NCCN1)c1ccccc1
inactive: endpoint: mean survival time, dose: 12.5 mg/kg/injection, schedule: Q01DX009 (ip), vehicle: saline 101 % of control | [7] 101 % of control | [8] 102 % of control

CCCCCOC(=S)S.[Pt]
inactive: endpoint: mean survival time, dose: 6.25 mg/kg/injection, schedule: Q04DX003 (ip), vehicle: saline with Tween-80 101 % of control | endpoint: mean survival time, dose: 12.5 mg/kg/injection, schedule: Q04DX003 (ip), vehicle: saline with Tween-80 104 % of control | endpoint: mean survival time, dose: 25.0 mg/kg/injection, schedule: Q04DX003 (ip), vehicle: saline with Tween-80 108 % of control | endpoint: mean survival time, dose: 50.0 mg/kg/injection, schedule: Q04DX003 (ip), vehicle: saline with Tween-80 101 % of control | [1] 104 % of control

SCC1=NCCN1
inactive: endpoint: mean survival time, dose: 25.0 mg/kg/injection, schedule: Q04DX002 (ip), vehicle: saline 103 % of control | endpoint: mean survival time, dose: 50.0 mg/kg/injection, schedule: Q04DX002 (ip), vehicle: saline 98 % of control | endpoint: mean survival time, dose: 100.0 mg/kg/injection, schedule: Q04DX002 (ip), vehicle: saline 93 % of control and 95 % of control

CCNc1nc(NCC)nc(OC)n1
inactive: [9] 95 % of control | [10] 105 % of control | [1] 87 % of control | [11] 103 % of control | [2] 89 % of control

O=C(C[n+]1ccccc1)N/N=C/c1c(O)ccc2ccccc12
inactive: endpoint: mean survival time, dose: 25.0 mg/kg/injection, schedule: Q01DX009 (ip), vehicle: saline with Tween-80 100 % of control | [9] 99 % of control | [10] 99 % of control

COc1ccc(CCNC(=O)NC(C)(C)C)cc1OC
inactive: [10] 96 % of control | [11] 100 % of control | [12] 93 % of control

O=C(SC1=NCCN1)c1ccccc1
inactive: endpoint: mean survival time, dose: 100.0 mg/kg/injection, schedule: Q01DX001 (ip), vehicle: saline 94 % of control | endpoint: mean survival time, dose: 200.0 mg/kg/injection, schedule: Q01DX001 (ip), vehicle: saline 102 % of control

CC(=O)N1CCCCC1
inactive: [7] 102 % of control | [8] 96 % of control | endpoint: mean survival time, dose: 100.0 mg/kg/injection, schedule: Q01DX009 (ip), vehicle: saline 102 % of control

O=C1CN=C(c2ccccn2)c2cc(Cl)ccc2N1
inactive: endpoint: mean survival time, dose: 267.0 mg/kg/injection, schedule: Q01DX009 (ip), vehicle: saline with Tween-80 92 % of control | [12] 92 % of control

Cc1ccc(S(=O)(=O)OCC2OC3(COS(=O)(=O)c4ccc(C)cc4)OC(C)(C)OC3C2O)cc1 (stereo not given)
inactive: [1] 93 % of control | [2] 101 % of control

COc1ccc2c(c1)C1CCCC(=O)C1N2 (stereo not given)
inactive: [10] 97 % of control | [11] 91 % of control | [12] 91 % of control

OCCNCCO
inactive: [10] 93 % of control | [1] 97 % of control | [11] 93 % of control | [2] 103 % of control | [12] 96 % of control | [3] 107 % of control

Nc1ncnc2c1c1c(=S)[nH]c(=S)[nH]c1n2C1OC(CO)C(O)C1O (stereo not given)
inactive: endpoint: mean survival time, dose: 12.5 mg/kg/injection, schedule: Q01DX005 (ip), vehicle: distilled water + Tween-80 104 % of control | endpoint: mean survival time, dose: 25.0 mg/kg/injection, schedule: Q01DX005 (ip), vehicle: distilled water + Tween-80 105 % of control | endpoint: mean survival time, dose: 50.0 mg/kg/injection, schedule: Q01DX005 (ip), vehicle: distilled water + Tween-80 107 % of control | endpoint: mean survival time, dose: 100.0 mg/kg/injection, schedule: Q01DX005 (ip), vehicle: distilled water + Tween-80 104 % of control | endpoint: mean survival time, dose: 200.0 mg/kg/injection, schedule: Q01DX005 (ip), vehicle: distilled water + Tween-80 102 % of control

COc1ccc(CCNC(C)Cc2ccc(OC)c(OC)c2)cc1OC (stereo not given)
inactive: endpoint: mean survival time, dose: 12.5 mg/kg/injection, schedule: Q01DX009 (ip), vehicle: water 104 % of control | endpoint: mean survival time, dose: 25.0 mg/kg/injection, schedule: Q01DX009 (ip), vehicle: water 101 % of control | endpoint: mean survival time, dose: 50.0 mg/kg/injection, schedule: Q01DX009 (ip), vehicle: water 103 % of control

CC(=O)OCc1cc(=O)n(C)c2c3c4c(cc12)c(C)cc(=O)n4CO3
inactive: endpoint: mean survival time, dose: 6.25 mg/kg/injection, schedule: Q01DX009 (ip), vehicle: Klucel (hydroxypropylcellulose) (HPC) 100 % of control | endpoint: mean survival time, dose: 12.5 mg/kg/injection, schedule: Q01DX009 (ip), vehicle: Klucel (hydroxypropylcellulose) (HPC) 104 % of control and 112 % of control | endpoint: mean survival time, dose: 25.0 mg/kg/injection, schedule: Q01DX009 (ip), vehicle: Klucel (hydroxypropylcellulose) (HPC) 112 % of control and 114 % of control and 109 % of control | endpoint: mean survival time, dose: 50.0 mg/kg/injection, schedule: Q01DX009 (ip), vehicle: Klucel (hydroxypropylcellulose) (HPC) 119 % of control | endpoint: mean survival time, dose: 100.0 mg/kg/injection, schedule: Q01DX009 (ip), vehicle: Klucel (hydroxypropylcellulose) (HPC) 90 % of control

COc1cc2ccc3c4cc(OC)c(OC)cc4c[n+](C)c3c2cc1O
inactive: endpoint: mean survival time, dose: 75.0 mg/kg/injection, schedule: Q04DX003 (ip), vehicle: Klucel (hydroxypropylcellulose) (HPC) 113 % of control | endpoint: mean survival time, dose: 150.0 mg/kg/injection, schedule: Q04DX003 (ip), vehicle: Klucel (hydroxypropylcellulose) (HPC) 113 % of control | endpoint: mean survival time, dose: 300.0 mg/kg/injection, schedule: Q04DX003 (ip), vehicle: Klucel (hydroxypropylcellulose) (HPC) 119 % of control
